Results reported in ChEMBL document CHEMBL1201862, “PubChem BioAssay data set” (2004).
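Step 1: Grow cells in 96-well plates. Step 2: Expose to compound for 48 hours at 5 concentrations. Step 3: Interpolate endpoints linearly; if unreached, use highest concentration. Abbreviation: GI50, concentration required for 50% inhibition of growth.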 Activity calls are given as the source filed them. Cut-off read from the data, not from the text of the source: active = GI50 up to about 1.1 µM and inactive = higher.

How the values were obtained:
Experiment in all cases: NCI anticancer screen, dose series, 48 h
[1] = tested on: NCI/ADR-RES
[2] = tested on: COLO 205
[3] = tested on: EKVX
[4] = tested on: ACHN
[5] = tested on: HCT-15
[6] = tested on: T47D
[7] = tested on: OVCAR-4
[8] = tested on: HCT-116
[9] = tested on: HOP-92
[10] = tested on: U-251
[11] = tested on: MDA-MB-435
[12] = tested on: SF-295
[13] = tested on: RPMI-8226
[14] = tested on: SW-620
[15] = tested on: SN12C
[16] = tested on: SF-268
[17] = tested on: SK-MEL-28
[18] = tested on: SK-OV-3
[19] = tested on: SNB-75
[20] = tested on: UACC-62
[21] = tested on: DU-145
[22] = tested on: NCI-H522
[23] = tested on: SK-MEL-5
[24] = tested on: HT-29
[25] = tested on: OVCAR-3
[26] = tested on: HCC 2998
[27] = tested on: NCI-H23
[28] = tested on: MDA-N
[29] = tested on: CCRF-CEM
[30] = tested on: A498
[31] = tested on: A549
[32] = tested on: SK-MEL-2
[33] = tested on: SNB-19
[34] = tested on: MDA-MB-231
[35] = tested on: LOX IMVI
[36] = tested on: NCI-H460
[37] = tested on: OVCAR-8
[38] = tested on: CAKI-1
[39] = tested on: M14
[40] = tested on: PC-3
[41] = tested on: TK-10
[42] = tested on: MOLT-4
[43] = tested on: HOP-62
[44] = tested on: MCF7
[45] = tested on: Malme-3M
[46] = tested on: RXF 393
[47] = tested on: SF-539
[48] = tested on: UACC-257
[49] = tested on: SR
[50] = tested on: KM12
[51] = tested on: NCI-H226
[52] = tested on: IGROV-1
[53] = tested on: UO-31
[54] = tested on: OVCAR-5
[55] = tested on: 786-0
[56] = tested on: K562
[57] = tested on: HL-60

C/C(=N/NC(=S)Nc1ccc(Cl)cc1)c1cccc(/C(C)=N\NC(=S)Nc2ccc(Cl)cc2)n1
GI50 [1]: 2.59 µM (inactive) | GI50 [2]: 3.56 µM (inactive) | GI50 [3]: 5.45 µM (inactive) | GI50 [4]: 2.54 µM (inactive) | GI50 [5]: 2.47 µM | GI50 [6]: 30.7 µM (inactive) | GI50 [7]: 13.4 µM (inactive) | GI50 [8]: 2.9 µM (inactive) | GI50 [9]: 3.17 µM (inactive) | GI50 [10]: 6.3 µM (inactive) | GI50 [11]: 12.3 µM (inactive) | GI50 [12]: 3.34 µM (inactive) | GI50 [13]: 4.74 µM (inactive) | GI50 [14]: 4.12 µM (inactive) | GI50 [15]: 10.7 µM (inactive) | GI50 [16]: 23.8 µM (inactive) | GI50 [17]: 23.2 µM (inactive) | GI50 [18]: 7.6 µM (inactive) | GI50 [19]: 7.48 µM (inactive) | GI50 [20]: 3.48 µM (inactive) | GI50 [21]: 26.1 µM (inactive) | GI50 [22]: 4.29 µM (inactive) | GI50 [23]: 1.86 µM (inactive) | GI50 [24]: 10.2 µM (inactive) | GI50 [25]: 1.49 µM (inactive) | GI50 [26]: 12.2 µM (inactive) | GI50 [27]: 13.2 µM (inactive) | GI50 [28]: 17.1 µM (inactive) | GI50 [29]: 1.68 µM (inactive) | GI50 [30]: 20.4 µM (inactive) | GI50 [31]: 5.55 µM (inactive) | GI50 [32]: 5.41 µM (inactive) | GI50 [33]: 9.73 µM (inactive) | GI50 [34]: 4.14 µM (inactive) | GI50 [35]: 4.58 µM (inactive) | GI50 [36]: 3.49 µM (inactive) | GI50 [37]: 1.85 µM (inactive) | GI50 [38]: 3.72 µM (inactive) | GI50 [39]: 1.79 µM (inactive) | GI50 [40]: 3.47 µM (inactive) | GI50 [41]: 2.81 µM (inactive) | GI50 [42]: 2.34 µM (inactive) | GI50 [43]: 2.76 µM (inactive) | GI50 [44]: 1.93 µM (inactive) | GI50 [45]: 2.59 µM (inactive) | GI50 [46]: 4.01 µM (inactive) | GI50 [47]: 1.48 µM (inactive) | GI50 [48]: 4.5 µM (inactive) | GI50 [49]: 1.19 µM (inactive) | GI50 [50]: 3.66 µM (inactive) | GI50 [51]: 3.54 µM (inactive) | GI50 [52]: 1.74 µM (inactive) | GI50 [53]: 5.92 µM (inactive) | GI50 [54]: 20 µM (inactive) | GI50 [55]: 0.594 µM (active) | GI50 [56]: 5.02 µM (inactive)

Cc1ccc(S(=O)(=O)OC2C(O)C(O)OC2C(c2cc(O)c3c(c2O)C(=O)c2ccccc2C3=O)c2cc(O)c3c(c2O)C(=O)c2ccccc2C3=O)cc1 (stereo unspecified)
GI50 [2]: 2.2 µM (inactive) | GI50 [3]: 3.33 µM (inactive) | GI50 [5]: 3.4 µM | GI50 [6]: 5.07 µM (inactive) | GI50 [12]: 3.76 µM (inactive) | GI50 [13]: 2.64 µM (inactive) | GI50 [14]: 4.65 µM (inactive) | GI50 [15]: 3.65 µM (inactive) | GI50 [17]: 7.26 µM (inactive) | GI50 [18]: 6.25 µM (inactive) | GI50 [19]: 4.09 µM (inactive) | GI50 [20]: 4.38 µM (inactive) | GI50 [21]: 5.58 µM (inactive) | GI50 [23]: 3.43 µM (inactive) | GI50 [24]: 5.24 µM (inactive) | GI50 [26]: 4.09 µM (inactive) | GI50 [27]: 2.99 µM (inactive) | GI50 [28]: 3.61 µM (inactive) | GI50 [29]: 3.89 µM (inactive) | GI50 [31]: 3.54 µM (inactive) | GI50 [34]: 4.06 µM (inactive) | GI50 [37]: 3.44 µM (inactive) | GI50 [38]: 2.74 µM (inactive) | GI50 [39]: 2.74 µM (inactive) | GI50 [40]: 2.9 µM (inactive) | GI50 [41]: 8.71 µM (inactive) | GI50 [42]: 3.31 µM (inactive) | GI50 [43]: 4.11 µM (inactive) | GI50 [44]: 3.44 µM (inactive) | GI50 [57]: 1.87 µM (inactive) | GI50 [45]: 1.28 µM (inactive) | GI50 [46]: 5.36 µM (inactive) | GI50 [48]: 3.01 µM (inactive) | GI50 [49]: 3.08 µM (inactive) | GI50 [50]: 3.42 µM (inactive) | GI50 [52]: 7.1 µM (inactive) | GI50 [55]: 4.94 µM (inactive) | GI50 [56]: 3.24 µM (inactive)

O=c1c2ccccc2nc(N/N=C/c2ccc(Cl)cc2)n1-c1ccccc1
GI50 [1]: > 100 µM (inactive) | GI50 [2]: > 100 µM (inactive) | GI50 [3]: > 100 µM (inactive) | GI50 [4]: > 100 µM (inactive) | GI50 [5]: 89.9 µM | GI50 [6]: 82.6 µM (inactive) | GI50 [7]: 21.1 µM (inactive) | GI50 [8]: > 100 µM (inactive) | GI50 [9]: 98.6 µM (inactive) | GI50 [10]: 46.6 µM (inactive) | GI50 [11]: > 100 µM (inactive) | GI50 [12]: > 100 µM (inactive) | GI50 [14]: > 100 µM (inactive) | GI50 [15]: > 100 µM (inactive) | GI50 [16]: 80.2 µM (inactive) | GI50 [17]: > 100 µM (inactive) | GI50 [18]: > 100 µM (inactive) | GI50 [19]: 0.0269 µM (active) | GI50 [20]: > 100 µM (inactive) | GI50 [21]: > 100 µM (inactive) | GI50 [22]: 67 µM (inactive) | GI50 [23]: > 100 µM (inactive) | GI50 [24]: > 100 µM (inactive) | GI50 [25]: > 100 µM (inactive) | GI50 [26]: > 100 µM (inactive) | GI50 [27]: > 100 µM (inactive) | GI50 [28]: 50.8 µM (inactive) | GI50 [29]: > 100 µM (inactive) | GI50 [30]: > 100 µM (inactive) | GI50 [31]: > 100 µM (inactive) | GI50 [32]: 17.5 µM (inactive) | GI50 [33]: 36.5 µM (inactive) | GI50 [34]: 93.3 µM (inactive) | GI50 [35]: > 100 µM (inactive) | GI50 [36]: 75 µM (inactive) | GI50 [37]: 77.1 µM (inactive) | GI50 [38]: > 100 µM (inactive) | GI50 [39]: > 100 µM (inactive) | GI50 [40]: 49.5 µM (inactive) | GI50 [41]: > 100 µM (inactive) | GI50 [42]: > 100 µM (inactive) | GI50 [43]: 38.1 µM (inactive) | GI50 [44]: > 100 µM (inactive) | GI50 [57]: > 100 µM (inactive) | GI50 [45]: > 100 µM (inactive) | GI50 [46]: 87.1 µM (inactive) | GI50 [47]: 97.3 µM (inactive) | GI50 [48]: > 100 µM (inactive) | GI50 [49]: > 100 µM (inactive) | GI50 [51]: > 100 µM (inactive) | GI50 [52]: > 100 µM (inactive) | GI50 [53]: 62.4 µM (inactive) | GI50 [54]: > 100 µM (inactive) | GI50 [55]: > 100 µM (inactive) | GI50 [56]: > 100 µM (inactive)

CN(C)c1ccc(/C=C/c2ccc(S(N)(=O)=O)cc2)cc1
GI50 [1]: 14.8 µM (inactive) | GI50 [2]: 24.5 µM (inactive) | GI50 [3]: 21.8 µM (inactive) | GI50 [6]: 27 µM (inactive) | GI50 [8]: 23.1 µM (inactive) | GI50 [12]: 24.3 µM (inactive) | GI50 [14]: 11.1 µM (inactive) | GI50 [15]: 20.4 µM (inactive) | GI50 [17]: 11.5 µM (inactive) | GI50 [18]: 17 µM (inactive) | GI50 [19]: 22.7 µM (inactive) | GI50 [21]: 13.6 µM (inactive) | GI50 [23]: 11.3 µM (inactive) | GI50 [25]: 20.4 µM (inactive) | GI50 [26]: 34 µM (inactive) | GI50 [28]: 11.8 µM (inactive) | GI50 [30]: 17.7 µM (inactive) | GI50 [32]: 28.2 µM (inactive) | GI50 [33]: 20.2 µM (inactive) | GI50 [34]: 13.5 µM (inactive) | GI50 [36]: 14.9 µM (inactive) | GI50 [39]: 15.8 µM (inactive) | GI50 [40]: 14.8 µM (inactive) | GI50 [41]: 20.5 µM (inactive) | GI50 [43]: 18.7 µM (inactive) | GI50 [44]: 13.4 µM (inactive) | GI50 [45]: 14 µM (inactive) | GI50 [46]: 20.7 µM (inactive) | GI50 [48]: 46.5 µM (inactive) | GI50 [53]: 17.7 µM (inactive) | GI50 [54]: 18 µM (inactive) | GI50 [55]: 16.9 µM (inactive)
